Test results: patent US20010033827A1, “Inhibition of mucin release from airway goblet cells by polycationic peptides” (priority 1999, published 2001)

Columns and labels:
[1] = system: hamster tracheal surface epithelial (HTSE) cells; experiment: Mucin release from cultured airway goblet cells (3H-glucosamine-labelled HTSE cell culture); format: cell-based, Golden Syrian hamsters; details: for effect on mucin release/secretion (dose dependence): varying concentrations; for effect on mucin release/secretion (dose dependence) / "inhibition" of released mucins: 30 min chase, HTSE cells; for inhibitory effect on mucin release after LMWH pretreatment: 10^-5 M peptide, pretreatment with 2×10^-5 M LMWH for 5 min; for "inhibition" of released mucins / effect on mucin release, column-purified versus not column purified: 10^-5 M; for effect on mucin release, column-purified versus not column purified: unacetylated peptide
Protocol: The effects of poly-L-arginine (PLA) and poly-L-lysine (PLL) on mucin release from cultured airway goblet cells were evaluated. Tracheas obtained from 7-8 week old male Golden Syrian hamsters (Harlan Sprague Dawley, Indianapolis, Ind.) were used to establish a hamster tracheal surface epithelial, (HTSE) cell culture. HTSE cells were harvested and cultured on a thick collagen gel as described in Kim et al., 1989, Exp. Lung Res. 15: 299-314. Mucins were metabolically radiolabeled by incubating confluent cultures (24 well plate, 5×10^5 cells/well) with 0.2 ml/well of a “complete” medium containing 10 μCi/ml of ^3H-glucosamine for 24 hours as described in Kim et al., 1989, Am. J. Resp. Cell Mol. Biol. 1: 137-143. The “complete” medium was prepared by supplementing a mixture of Medium 199/Dulbecco's modified Eagle's medium (DME) (1:1) with insulin (5 μg/ml), transferrin (5 μg/ml), epidermal growth factor (12.5 ng/ml), 0.1 μM hydrocortisone, 0.01 μM sodium selenite, 0.1 μM retinoic acid, and 5% fetal bovine serum (Hyclone, Logan, Utah). At the end of the 24 hour incubation period, the spent media (the pretreatment sample) were collected, and the labeled cultures were washed twice with Dulbecco's PBS without Ca^++ and Mg^++ and then chased for 30 min in the presence of varying concentrations of poly-L-arginine (PLA, average MW 8,900) or poly-L-lysine (PLL, average MW 9,600). The chased media are referred to as the treatment samples. PLA and PLL were prepared in phosphate buffered saline (PBS), and the final pH's of these solutions were adjusted to be between 7.0 and 7.4. […] J. Resp. Cell Mol. Biol. 1: 137-143. At the end of the chase period, floating cells and cell debris were removed from the treatment samples by centrifigation at 12,000×g for 5 min. Fifty μl of the treatment samples were used for lactate dehydrogenase (LDH) assay (as discussed in Example 2 below) and the remaining samples were stored at −80° C. until assayed for their ^3H-mucin contents. High molecular weight glycoconjugates that were excluded after Sepharose CL-4B (Phainacia, Upsaala, Sweden) gel-filtration column chromatography and that were resistant to hyaluronidase, were defined as mucins, as described in Kim et al., 1985, J. Biol. Chem. 260:4021:4027. Mucins were measured by column chromatography as described in Kim et al, 1987, Proc. Natl. Acad. Sci. USA 84:9304-9308.

HTSE cells [2] = experiment: LDH release cytotoxicity assay in HTSE cells; format: cell-based, Golden Syrian hamsters; details: for cytotoxicity as determined by LDH release / LDH release: HTSE cells; for cytotoxicity as determined by LDH release: techniques of examples 1-4; for LDH release: 10^-5 M, 30 min treatment; for LDH release across concentration groups: varying concentrations, 30 min, HTSE cells (FIG. 2)
Protocol: (§1) The effects of PLA or PLL on cell toxicity were also examined. The possible cytotoxicity of these polypeptides was assessed by four different methods: (a) LDH release, (b) ^51Cr release, (c) cell exfoliation, and (d) light microscopy. Cultures were treated with either PLA or PLL for 30 min, and then assayed as follows. An LDH assay was conducted using an LDH assay kit (LD-L10) (Sigma Chemical Co., St. Louis, Mo.), according to the manufacturer's directions. A 51Cr release assay was carried out as described in Kim et al., 1987, Proc. Natl. Acad. Sci. USA 84:9304-9308. The degree of exfoliation was measured by counting the floating cells at the end of the 24 hr post-treatment period. Floating cells were collected as a pellet from spent media by centrifugation at 200×g for 5 min at 4° C. The resulting cell pellet was suspended in a solution containing 0.05% Trypsin and 0.02% EDTA, and the suspension was incubated at 37° C. for 10 min before dissociated cells were counted using a hemacytometer.

[3] = system: SO2-induced goblet cell metaplasia; experiment: SO2-induced goblet cell metaplasia in rats (inhaled peptide, PAS staining); format: in vivo, Sprague-Dawley rats; details: rat, inhaled 100 μl of 50, 500 or 5,000 μM once a day for five days, 150 ppm SO2
Protocol: To examine the effects of PLL or PLA in vivo, the effect of PLL or PLA on goblet cell metaplasia in rats was determined. Exposure of rats to SO2 was carried out essentially according to the method described in Kase et al, 1982, Arzneim-Forsch Drug Research 32:368-373. Eight to ten week-old male Sprague-Dawley rats were placed in a polyacrylic chamber (100 cm×60 cm×25 cm) and exposed to SO2 for three weeks, three hours per day, five days per week. The SO2 gas was generated from a solution containing 10% (W/V) sodium metabisulfite by aerosolization using an ultrasonic humidifier (Samsung Electronic Co., Korea). Concentrations of the generated SO2 gas were monitored before and after the exposure using a SO2 detector kit (Gastec Co., Japan), which has a detection range from 20 to 3600 ppm of SO2. The concentration of the SO2 gas inside the chamber was maintained at 150 ppm during all of the exposure periods.
PLA (average MW 10,800) was prepared in phosphate buffered saline (PBS), pH 7.2, in various concentrations. Following treatment of the animals with SO2 for 2 weeks, animals were treated with both S and PLA during a third week. A 100 μl aliquot of one of the PLA solutions was administered to each rat using an inhaler (PAPI master, Stamberg, Germany), once a day for five consecutive days, during the period immediately following the two week SO2 treatment period. […]

HTSE cells [4] = experiment: 51Cr release assay in HTSE cells; format: cell-based, Golden Syrian hamsters; details: 10^-5 M, 30 min; control 100±4%
Protocol: as §1

HTSE cells [5] = experiment: Cell exfoliation (floating cell count) in HTSE cultures; format: cell-based, Golden Syrian hamsters; details: 10^-5 M; 24 hr post-treatment period; control 1992±132
Protocol: as §1

HTSE cells [6] = experiment: Light microscopy of treated HTSE cells; format: cell-based, Golden Syrian hamsters; details: end of 30 min treatment or end of 24 hr post-treatment period
Protocol: as §1

HTSE cells [7] = experiment: ATP-induced mucin release in HTSE cells; format: cell-based, Golden Syrian hamsters; details: 10^-5 M peptide with 2×10^-4 M ATP, 30 min chase
Protocol: The effects of poly-L-arginine (PLA) and poly-L-lysine (PLL) on mucin release from cultured airway goblet cells were evaluated. Tracheas obtained from 7-8 week old male Golden Syrian hamsters (Harlan Sprague Dawley, Indianapolis, Ind.) were used to establish a hamster tracheal surface epithelial, (HTSE) cell culture. HTSE cells were harvested and cultured on a thick collagen gel as described in Kim et al., 1989, Exp. Lung Res. 15: 299-314. Mucins were metabolically radiolabeled by incubating confluent cultures (24 well plate, 5×10^5 cells/well) with 0.2 ml/well of a “complete” medium containing 10 μCi/ml of ^3H-glucosamine for 24 hours as described in Kim et al., 1989, Am. J. Resp. Cell Mol. Biol. 1: 137-143. The “complete” medium was prepared by supplementing a mixture of Medium 199/Dulbecco's modified Eagle's medium (DME) (1:1) with insulin (5 μg/ml), transferrin (5 μg/ml), epidermal growth factor (12.5 ng/ml), 0.1 μM hydrocortisone, 0.01 μM sodium selenite, 0.1 μM retinoic acid, and 5% fetal bovine serum (Hyclone, Logan, Utah). […] Mucins were measured by column chromatography as described in Kim et al, 1987, Proc. Natl. Acad. Sci. USA 84:9304-9308. […]

poly-L-arginine [High molecular weight PLA]
effect on mucin release/secretion (dose dependence) [1]: inhibited mucin secretion in a dose-dependent fashion | cytotoxicity as determined by LDH release (HTSE cells [2]): associated with cytotoxicity

poly-L-arginine [Low molecular weight PLA (14 residues)]
effect on mucin release/secretion (dose dependence) [1]: inhibited mucin secretion in a dose dependent fashion | cytotoxicity as determined by LDH release (HTSE cells [2]): without any evidence of cytotoxicity

poly-L-arginine [Low molecular weight PLA (20 residues)]
effect on mucin release/secretion (dose dependence) [1]: inhibited mucin secretion in a dose dependent fashion | cytotoxicity as determined by LDH release (HTSE cells [2]): without any evidence of cytotoxicity

poly-L-arginine [PLA (5 residues)]
effect on mucin release/secretion (dose dependence) [1]: did not show any significant inhibition

poly-L-arginine [PLA (average MW 10,800)]
goblet cell metaplasia induced by SO2 [3]: prevented by PLA in a dose-dependent fashion

poly-L-arginine [PLA]
inhibitory effect on mucin release after LMWH pretreatment [1]: completely blocked | "inhibition" of released mucins [1]: 85% | effect on mucin release, column-purified versus not column purified [1]: no significant difference | effect on mucin release/secretion (dose dependence) [1]: dose-dependent decrease | LDH release (HTSE cells [2]): no significant increases | LDH release across concentration groups (HTSE cells [2]): no significant difference | 51Cr release (HTSE cells [4]): 102±11% | number of floating cells/well (HTSE cells [5]): 2154±84 cells/well | microscopic difference between control and treated cells (HTSE cells [6]): no apparent microscopic difference | stimulatory effect of ATP on mucin release (HTSE cells [7]): completely blocked

poly-L-lysine [High molecular weight PLL]
effect on mucin release/secretion (dose dependence) [1]: inhibited mucin secretion in a dose-dependent fashion | cytotoxicity as determined by LDH release (HTSE cells [2]): associated with cytotoxicity

poly-L-lysine [Low molecular weight PLL (5 residues)]
effect on mucin release/secretion (dose dependence) [1]: did not show any significant inhibition

poly-L-lysine [Low molecular weight PLL (14 residues)]
effect on mucin release/secretion (dose dependence) [1]: inhibited mucin secretion in a dose dependent fashion | cytotoxicity as determined by LDH release (HTSE cells [2]): without any evidence of cytotoxicity

poly-L-lysine [Low molecular weight PLL (20 residues)]
effect on mucin release/secretion (dose dependence) [1]: inhibited mucin secretion in a dose dependent fashion | cytotoxicity as determined by LDH release (HTSE cells [2]): without any evidence of cytotoxicity

poly-L-lysine [PLL]
inhibitory effect on mucin release after LMWH pretreatment [1]: completely blocked | "inhibition" of released mucins [1]: 87% | effect on mucin release, column-purified versus not column purified [1]: no significant difference | effect on mucin release/secretion (dose dependence) [1]: dose-dependent decrease | LDH release (HTSE cells [2]): no significant increases | LDH release across concentration groups (HTSE cells [2]): no significant difference | 51Cr release (HTSE cells [4]): 103±10% | number of floating cells/well (HTSE cells [5]): 1920±70 cells/well | microscopic difference between control and treated cells (HTSE cells [6]): no apparent microscopic difference | stimulatory effect of ATP on mucin release (HTSE cells [7]): completely blocked
